Source: patent publication US20260265216A1, “NOVEL THIOREDOXIN REDUCTASE INHIBITORS” (GENEXPLAIN GMBH, priority 2021, published 2026)

Key:
[1] = biological target: T1, recombinant purified TrxR1 (Homo sapiens, UniProt Q16881); experiment: TrxR1 enzymatic activity measurement in vitro; assay type: biochemical; settings: recombinant purified enzyme in vitro
T1 construct: made in house; host or cells: Release Factor 1-depleted E. coli strain
T1 sequence (Q16881 1-499 isoform Q16881-5): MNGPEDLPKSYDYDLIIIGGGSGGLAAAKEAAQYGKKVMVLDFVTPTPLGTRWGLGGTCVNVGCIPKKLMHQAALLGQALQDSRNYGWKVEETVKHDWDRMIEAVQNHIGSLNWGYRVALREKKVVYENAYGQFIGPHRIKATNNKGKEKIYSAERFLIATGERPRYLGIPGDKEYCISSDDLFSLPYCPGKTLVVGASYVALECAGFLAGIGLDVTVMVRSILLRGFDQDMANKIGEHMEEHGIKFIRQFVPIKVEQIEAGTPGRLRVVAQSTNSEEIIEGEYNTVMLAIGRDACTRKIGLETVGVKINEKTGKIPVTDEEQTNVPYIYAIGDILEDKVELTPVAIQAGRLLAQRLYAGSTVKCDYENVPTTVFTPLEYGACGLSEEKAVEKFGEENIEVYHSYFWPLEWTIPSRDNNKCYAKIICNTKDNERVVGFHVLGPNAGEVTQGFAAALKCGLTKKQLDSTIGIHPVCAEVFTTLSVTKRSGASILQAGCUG
Experimental: (§1) TrxR1 enzyme was recombinantly produced with high Sec contents in a specific Release Factor 1-depleted E. coli strain and purified as previously described (Arnér E S J, Holmgren A, in Current Protocols in Toxicology, Maines M, Costa L, Reed D, Sassa S, Eds. (John Wiley & Sons, Inc., New York, 2000), pp. 7.4.1-7.4.14). TrxR1 and GSR (Sigma) recombinant enzyme assays were performed in a reaction buffer containing 50 mM Tris pH 7.5 with 2 mM EDTA and 0.1 mg/mL bovine serum albumin as described previously (Arnér E S J, Holmgren A, in Current Protocols in Toxicology, Maines M, Costa L, Reed D, Sassa S, Eds. (John Wiley & Sons, Inc., New York, 2000), pp. 7.4.1-7.4.14). Briefly, assays were performed in triplicate using 96-well plates, with activity inferred from absorbance changes using a Spectra Max plate reader. Results of recombinant enzyme assays were normalized to DMSO and to no enzyme controls.
(§2) We used recombinant purified TrxR1 and GR in an in vitro assay as described in methods section.

C33A = experiment: Growth suppression, cancer cell line panel (resazurin); assay type: cell-based; settings: 0.4-25.6 μM, 48 hours
Experimental: (§3) Breast, colon, ovarian, cervical, liver and lung carcinoma cell lines were grown in DMEM supplemented with 10% FBS, and antibiotics were cultured at 37° C. and 5% CO2. Osteosarcoma, melanoma, lymphoma, neuroblastoma and leukemia cell lines were cultured in RPMI 1640 with 10% FBS and antibiotics. An oxygen concentration of 0.3% was obtained by flushing a sealed box containing the cells with premixed gas composed of 95% nitrogen (N2) and 5% CO2 (AGA AB, Sweden). To obtain an oxygen concentration of 0.05%, the cells were flushed with the premixed gas continuously throughout the experiment.
(§4) Cells were grown in 96-well plates at a density of 3000 cells per well with or without doxycycline and treated with compounds. After 48 hours of incubation the proliferative cell reagent resazurin (Thermo Fisher Scientific) was added to the cells. The degree of resazurin reduction, which reflects cell viability, was measured by microplate reader by monitoring the absorbance at 570 nm and 600 nm, according to the manufacturer.
(§5) The panel of cancer cell lines, including carcinomas of breast (MDA-MB231, SKBR3, T47D, MCF7; BT549, BT20, MDA-MB468), colon, (SW480, RKO, HT29, HCT116) ovarian (OVCAR3, OVCAR4, OVCAR8), cervical (SW756, C33A), liver (HEPG2) and lung (H23), osteosarcoma (SJSA and U2OS), melanoma (ME180), lymphoma (Raji, HDLM2), neuroblastoma (SKNAS, IMR32) and leukemia (NB4, K562) were treated with increasing concentrations of 1d*HCl: 0.4; 0.8; 1.6; 3.2; 6.4; 12.8; 25.6 μM in 96-well plates. After 48 hours of incubation the proliferative cell reagent resazurin was added to the cells. The degree of resazurin reduction, which reflects cell viability, was measured by microplate reader by monitoring the absorbance at 570 nm and 600 nm, according to the manufacturer, and the IC50 and AUC (area under curve) were determined (Table 2). As could be seen in Table 2, 1d*HCl suppressed the growth of cancer cell lines of a different origin, including carcinomas, osteosarcomas, melanoma, lymphoma, leukemia and neuroblastoma. These findings open up a possibility of the application of the present invention in anti-cancer therapy in a broad range of tumor types.

OVCAR3 = experiment: as above; assay type: cell-based; settings: OVCAR3, 0.4-25.6 μM, 48 hours
Experimental: as §3, §4, §5

OVCAR4 = experiment: as above; assay type: cell-based; settings: OVCAR4, 0.4-25.6 μM, 48 hours
Experimental: as §3, §4, §5

recombinant purified GR = experiment: GR recombinant enzyme assay in vitro; assay type: biochemical
Experimental: as §1, §2

[2] = Growth suppression with selenium in culture medium; assay type: cell-based; settings: selenium added to culture medium
Source text: To find out whether the inhibition of TrxR1 is the major mechanism of action of 1d*HCl, we addressed the question, whether stimulation of TrxR1 activity will decrease the growth suppression activity of 1d*HCl. Since TrxR is a selenium-containing enzyme and the concentration of selenium is rate-limiting for TrxR1, we added selenium to culture medium to test whether selenium will alleviate the growth suppression by 1d*HCl.

cancer cells [3] = experiment: Oxidative stress measurement (DCFH-DA, ROS); assay type: cell-based
Experimental: Cells were treated with compounds and incubated 30 min with 10 μM DCF-DA in serum free medium. Afterward, cells were trypsinized, washed with PBS and fluorescence was analyzed by a FACSCalibur flow cytometer (BD Biosciences) using FL1-H channel.
To get insight into the mechanism of the anti-tumor activity of 1d*HCl, we tested the level of oxidative stress upon treatment. We measured the induction of reactive oxygen species (ROS), using 2′-7′-Dichlorodihydrofluorescein diacetate (DCFH-DA)-based assay. […] After 8 h of treatment, the induction of reactive oxygen species (ROS) was much higher.

cancer cells [4] = experiment: Cell growth assay, combination with BSO; assay type: cell-based; settings: 5 μM 1d*HCl and 50 μM BSO
Experimental: Further, we tested whether the inhibition of GR by BSO will have additive effect with 1d*HCl. If 1d*HCl mechanism of action includes inhibition of GR, BSO will not have an additive effect. We used a range of concentrations of 1d*HCl and BSO in cell growth assays. […] Next, we tested whether the prevention of oxidative stress by NAC will affect the growth suppression by the combination of 1d*HCl and BSO. In the presence of NAC we observed the additive effect of 1d*HCl with 50 μM BSO only at twice higher dose of 1d*HCl-10 μM.

- inhibition of GR activity (recombinant purified GR): did not inhibit GR activity
SMILES: Cl.N#Cc1c(-c2cccnc2)[n+]([O-])c2cc(F)c(N3CCOCC3)cc2[n+]1[O-] [Compound 1d*HCl, 6-Fluoro-7-(morpholin-4-yl)-3-(pyridin-3-yl)quinoxaline-2-carbonitrile-1,4-dioxide hydrochloride]
- inhibition of enzymatic activity of TrxR1 [1]: efficiently inhibited the enzymatic activity of TrxR1 in a dose- and time-dependent manner
- AUC (area under curve) (C33A): 21
- AUC (area under curve) (OVCAR3): 4.813
- AUC (area under curve) (OVCAR4): 3.7
- growth suppression in the presence of selenium [2]: less efficient in the presence of selenium
- induction of reactive oxygen species (DCF fluorescence) (cancer cells [3]; 2 h after treatment): significant increase in DCF fluorescence
- induction of reactive oxygen species (ROS) (cancer cells [3]; after 8 h of treatment): much higher
- effect of combination with BSO on cell growth (cancer cells [4]): have an additive effect and completely eradicated cancer cells
